Test results published in patent US6221865A, “Inhibitors of protein isoprenyl transferases” (priority 1998, dated 2001).
Counter-ions that a name gives are not always drawn.

Target: T1, protein farnesyltransferase (Rattus norvegicus, UniProt Q02293+Q04631)
T1 construct: The enzyme is purified according to Reiss, Y., et al., Cell, 62: 81-88 (1990), utilizing steps one through three; from tissue; host or cells: rat brain
Experiment: Inhibition of farnesyltransferase (scintillation proximity assay, rat brain enzyme, biotin-K Ras B fragment substrate)
Type: biochemical
Settings: for % inhibition of farnesyltransferase at 1 × 10^-5 M: 1 × 10^-5 M (Table 1); for % inhibition of farnesyltransferase at 1 × 10^-6 M / inhibition at 1 µM: 1 × 10^-6 M (Table 2); for % inhibition of farnesyltransferase at 1 × 10^-7 M: 1 × 10^-7 M (Table 3); for % inhibition of farnesyltransferase at 1 × 10^-8 M: 1 × 10^-8 M (Table 4); for inhibition at 1 µM: read-out: % inhibition of farnesyltransferase at 1 × 10^-6 M
Procedure, shortened: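 Enzyme from rat brain, partly purified (steps one to three), assayed by SPA kit using 0.1 mM final biotin-K Ras B peptide as prenyl acceptor rather than biotin-lamin. Activity given as percent inhibition.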

T1 sequence (Q02293 whole entry, one chain of several): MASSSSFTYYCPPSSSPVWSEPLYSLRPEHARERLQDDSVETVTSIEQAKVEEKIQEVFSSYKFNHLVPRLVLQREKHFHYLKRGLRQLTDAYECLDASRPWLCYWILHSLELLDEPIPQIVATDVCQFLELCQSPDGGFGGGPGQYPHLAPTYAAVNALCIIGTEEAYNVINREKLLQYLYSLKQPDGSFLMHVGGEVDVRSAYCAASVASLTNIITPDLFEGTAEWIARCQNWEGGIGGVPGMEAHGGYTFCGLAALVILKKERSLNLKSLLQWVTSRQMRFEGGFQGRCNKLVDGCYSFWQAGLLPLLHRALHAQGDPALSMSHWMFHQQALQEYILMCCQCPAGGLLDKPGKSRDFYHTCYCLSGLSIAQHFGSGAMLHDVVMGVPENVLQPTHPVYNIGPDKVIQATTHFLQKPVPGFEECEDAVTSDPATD

CSCC[C@H](NC(=O)c1ccc(CNc2ccc(Oc3ccccc3)cc2)cc1-c1ccccc1)C(=O)O [Example 701] was tested, and the “% inhibition of farnesyltransferase at 1 × 10^-5 M” value (“% inhibition … at 1 × 10^-5 M” below) was 64%.
CSCC[C@H](NC(=O)c1ccc(CNc2ccc(C(=O)c3ccccc3)cc2)cc1-c1ccccc1)C(=O)O [Example 702] was tested, and the “% inhibition … at 1 × 10^-5 M” value was 79%.
In the case of CSCC[C@H](NC(=O)c1ccc(CNc2ccc(-c3nc4ccccc4s3)cc2)cc1-c1ccccc1)C(=O)O [Example 703], the “% inhibition of farnesyltransferase at 1 × 10^-6 M” value (“% inhibition … at 1 × 10^-6 M” for short) is reported as 40%.
In the case of CSCC[C@H](NC(=O)c1ccc(CNc2ccc(C)c(C)c2)cc1-c1ccccc1)C(=O)O [Example 704], the “% inhibition … at 1 × 10^-5 M” value is reported as 67%.
CSCC[C@H](NC(=O)c1ccc(CNc2ccc3c(c2)CCC3)cc1-c1ccccc1)C(=O)O [Example 705] was tested, and the “% inhibition … at 1 × 10^-5 M” value was 72%.
For CSCC[C@H](NC(=O)c1ccc(CNc2ccc3c(c2)Cc2ccccc2-3)cc1-c1ccccc1)C(=O)O [Example 706], the “% inhibition … at 1 × 10^-5 M” value was 53%.
With CSCC[C@H](NC(=O)c1ccc(CNc2ccc3ncccc3c2)cc1-c1ccccc1)C(=O)O [Example 708] the “% inhibition … at 1 × 10^-5 M” value was 76%.
For CSCC[C@H](NC(=O)c1ccc(CNc2cc(C)cc(C)c2)cc1-c1ccccc1)C(=O)O [Example 709], the “% inhibition … at 1 × 10^-5 M” value was 55%.
For CSCC[C@H](NC(=O)c1ccc(CNc2cc(C(=O)O)cc(C(=O)O)c2)cc1-c1ccccc1)C(=O)O [Example 710], the “% inhibition … at 1 × 10^-5 M” value was 45%.
In the case of CCN(Cc1ccc(C(=O)N[C@@H](CCSC)C(=O)O)c(-c2ccccc2)c1)Cc1cc([N+](=O)[O-])ccc1O [Example 711], the “% inhibition … at 1 × 10^-5 M” value is reported as 46%.
CSCC[C@H](NC(=O)c1ccc(CNCc2cc(Cl)cc(Cl)c2)cc1-c1ccccc1)C(=O)O [Example 712] was tested, and the “% inhibition … at 1 × 10^-5 M” value was 69%.
With CSCC[C@H](NC(=O)c1ccc(CNC(CO)C(O)c2ccccc2)cc1-c1ccccc1)C(=O)O (some centres unmarked) [Example 713] the “% inhibition … at 1 × 10^-5 M” value was 40%.
CSCC[C@H](NC(=O)c1ccc(CNC(CO)Cc2ccccc2)cc1-c1ccccc1)C(=O)O (some centres unmarked) [Example 714] was tested, and the “% inhibition … at 1 × 10^-5 M” value was 56%.
CSCC[C@H](NC(=O)c1ccc(CN[C@H](CC2CCCCC2)[C@H](O)[C@H](O)CC(C)C)cc1-c1ccccc1)C(=O)O [Example 715] was tested, and the “% inhibition … at 1 × 10^-5 M” value was 67%.
In the case of CSCC[C@H](NC(=O)c1ccc(CN[C@@H](CC2CCCCC2)[C@@H](O)[C@@H](O)CC(C)C)cc1-c1ccccc1)C(=O)O [Example 716], the “% inhibition … at 1 × 10^-6 M” value is reported as 69%.
CSCC[C@H](NC(=O)c1ccc(CNCCCCc2ccccc2)cc1-c1ccccc1)C(=O)O [Example 718] was tested, and the “% inhibition … at 1 × 10^-5 M” value was 40%.
In the case of CSCC[C@H](NC(=O)c1ccc(CN(C)CC(O)CO)cc1-c1ccccc1C)C(=O)O (some centres unmarked) [Example 719], the “% inhibition … at 1 × 10^-6 M” value is reported as 90%.
For CCc1nnc(NCc2ccc(C(=O)N[C@@H](CCSC)C(=O)O)c(-c3ccccc3C)c2)s1 [Example 723], the “% inhibition … at 1 × 10^-6 M” value was 87%.
COC(=O)c1cscc1NCc1ccc(C(=O)N[C@@H](CCSC)C(=O)O)c(-c2ccccc2C)c1 [Example 724] was tested, and the “% inhibition … at 1 × 10^-6 M” value was 87%.
For CSCC[C@H](NC(=O)c1ccc(CNc2ccc(S(=O)(=O)Nc3onc(C)c3C)cc2)cc1-c1ccccc1C)C(=O)O [Example 726], the “% inhibition … at 1 × 10^-6 M” value was 81%.
For CSCC[C@H](NC(=O)c1ccc(CN[C@H](CO)Cc2ccccc2)cc1-c1ccccc1C)C(=O)O [Example 727], the “% inhibition … at 1 × 10^-6 M” value was 95%.
With CSCC[C@H](NC(=O)c1ccc(CSC2=NCCS2)cc1-c1ccccc1C)C(=O)O [Example 730] the “% inhibition of farnesyltransferase at 1 × 10^-7 M” value (from here on “% inhibition … at 1 × 10^-7 M”) was 96%.
With CSCC[C@H](NC(=O)c1ccc(CSc2nc3ccccc3[nH]2)cc1-c1ccccc1C)C(=O)O [Example 732] the “% inhibition … at 1 × 10^-7 M” value was 84%.
CSCC[C@H](NC(=O)c1ccc(CSc2nc3cc(C)ccc3[nH]2)cc1-c1ccccc1C)C(=O)O [Example 733] was tested, and the “% inhibition … at 1 × 10^-7 M” value was 60%.
CSCC[C@H](NC(=O)c1ccc(CSc2nnc(N)s2)cc1-c1ccccc1C)C(=O)O [Example 734] was tested, and the “% inhibition … at 1 × 10^-7 M” value was 49%.
CSCC[C@H](NC(=O)c1ccc(CSc2nnc[nH]2)cc1-c1ccccc1C)C(=O)O [Example 735] was tested, and the “% inhibition … at 1 × 10^-7 M” value was 96%.
In the case of CSCC[C@H](NC(=O)c1ccc(CSc2ccccc2C(C)C)cc1-c1ccccc1C)C(=O)O [Example 739], the “% inhibition … at 1 × 10^-7 M” value is reported as 83%.
CSCC[C@H](NC(=O)c1ccc(CSc2ccc(F)cc2)cc1-c1ccccc1C)C(=O)O [Example 740] was tested, and the “% inhibition … at 1 × 10^-7 M” value was 94%.
In the case of CSCC[C@H](NC(=O)c1ccc(CSc2ccc(C)cc2C)cc1-c1ccccc1C)C(=O)O [Example 741], the “% inhibition … at 1 × 10^-7 M” value is reported as 89%.
With CSCC[C@H](NC(=O)c1ccc(CSc2nc(C)cc(C)n2)cc1-c1ccccc1C)C(=O)O [Example 743] the “% inhibition … at 1 × 10^-7 M” value was 51%.
CSCC[C@H](NC(=O)c1ccc(CSc2nc(O)cc(Cc3ccccc3)n2)cc1-c1ccccc1C)C(=O)O [Example 744] was tested, and the “% inhibition … at 1 × 10^-6 M” value was 84%.
In the case of CSCC[C@H](NC(=O)c1ccc(CSc2nc3ccccc3c(=O)[nH]2)cc1-c1ccccc1C)C(=O)O [Example 745], the “% inhibition … at 1 × 10^-7 M” value is reported as 93%.
In the case of CSCC[C@H](NC(=O)c1ccc(CSc2ncnc3[nH]ncc23)cc1-c1ccccc1C)C(=O)O [Example 746], the “% inhibition … at 1 × 10^-7 M” value is reported as 84%.
With CSCC[C@H](NC(=O)c1ccc(CSc2ncnc3[nH]cnc23)cc1-c1ccccc1C)C(=O)O [Example 747] the “% inhibition … at 1 × 10^-7 M” value was 68%.
For CSCC[C@H](NC(=O)c1ccc(NC(=O)CN)cc1-c1ccccc1)C(=O)O [Example 748], the “% inhibition … at 1 × 10^-7 M” value was 56%.
For CNCC(=O)Nc1ccc(C(=O)N[C@@H](CCSC)C(=O)O)c(-c2ccccc2)c1 [Example 749], the “% inhibition … at 1 × 10^-6 M” value was 84%.
CSCC[C@H](NC(=O)c1ccc(NC(=O)CCN)cc1-c1ccccc1)C(=O)O [Example 750] was tested, and the “% inhibition … at 1 × 10^-5 M” value was 44%.
With CSCC[C@H](NC(=O)c1ccc(NC(=O)C[C@H]2C[C@@H](C(C)=O)C2(C)C)cc1-c1ccccc1)C(=O)O [Example 751] the “% inhibition … at 1 × 10^-6 M” value was 32%.
For CSCC[C@H](NC(=O)c1ccc(NC(=O)c2cccc(N(C)C)c2)cc1-c1ccccc1)C(=O)O [Example 752], the “% inhibition … at 1 × 10^-5 M” value was 58%.
COc1cc(Cl)ccc1C(=O)Nc1ccc(C(=O)N[C@@H](CCSC)C(=O)O)c(-c2ccccc2)c1 [Example 753] was tested, and the “% inhibition … at 1 × 10^-5 M” value was 55%.
In the case of COc1ccc(Br)c(C(=O)Nc2ccc(C(=O)N[C@@H](CCSC)C(=O)O)c(-c3ccccc3)c2)c1 [Example 754], the “% inhibition … at 1 × 10^-5 M” value is reported as 40%.
For COc1cc(I)c(C(=O)Nc2ccc(C(=O)N[C@@H](CCSC)C(=O)O)c(-c3ccccc3)c2)cc1OC [Example 756], the “% inhibition … at 1 × 10^-5 M” value was 47%.
With CSCC[C@H](NC(=O)c1ccc(NC(=O)Cc2ccccc2[N+](=O)[O-])cc1-c1ccccc1)C(=O)O [Example 757] the “% inhibition … at 1 × 10^-5 M” value was 58%.
CSCC[C@H](NC(=O)c1ccc(CN(CCC2CCCCC2)C(=O)c2ccccc2)cc1-c1ccccc1C)C(=O)O [Example 762] was tested, and the “% inhibition of farnesyltransferase at 1 × 10^-8 M” value (“% inhibition … at 1 × 10^-8 M” below) was 84%.
In the case of CCSC[C@H](CC1CCCCC1)NCc1ccc(C(=O)N[C@@H](CCSC)C(=O)OCOC(=O)C(C)(C)C)c(-c2ccccc2C)c1 [Example 764], the “% inhibition … at 1 × 10^-6 M” value is reported as 88%.
CCSC[C@H](CC1CCCCC1)NCc1ccc(C(=O)N(C)[C@@H](CCSC)C(=O)O)c(-c2ccccc2C)c1 [Example 765] was tested, and the “% inhibition … at 1 × 10^-6 M” value was 76%.
CSCC[C@H](NC(=O)c1ccc(CN[C@H](CSC2CCCCC2)CC2CCCCC2)cc1-c1ccccc1C)C(=O)O [Example 766] was tested, and the “% inhibition … at 1 × 10^-8 M” value was 95%.
In the case of CSCC[C@H](NC(=O)c1ccc(CN[C@H](CSc2ccccc2C)CC2CCCCC2)cc1-c1ccccc1C)C(=O)O [Example 767], the “% inhibition … at 1 × 10^-8 M” value is reported as 97%.
With CSCC[C@H](NC(=O)c1ccc(S(=O)(=O)N(Cc2ccccc2)c2ccccc2)cc1-c1ccccc1C)C(=O)O [Example 768, N-[4-(N-Benzyl-N-phenylaminosulfonyl)-2-(2-methylphenyl)benzoyl]methionine lithium salt] the inhibition at 1 µM was 67%.
For CSCC[C@H](NC(=O)c1ccc(CN(c2ccccc2)S(=O)(=O)c2ccccc2)cc1-c1ccccc1C)C(=O)O [Example 769], the “% inhibition … at 1 × 10^-7 M” value was 90%.
For CSCC[C@H](NC(=O)c1ccc(CN(c2ccccc2)S(=O)(=O)c2ccc(C)cc2)cc1-c1ccccc1C)C(=O)O [Example 770], the “% inhibition … at 1 × 10^-7 M” value was 91%.
In the case of CSCC[C@H](NC(=O)c1ccc(S(=O)(=O)NCCC2CCCCC2)cc1-c1ccccc1C)C(=O)O [Example 772, lithium salt], the inhibition at 1 µM is reported as 79%.
Compound CSCC[C@H](NC(=O)c1ccc(S(=O)(=O)NC2CCN(Cc3ccccc3)CC2)cc1-c1ccccc1C)C(=O)O [Example 773, lithium salt] has an inhibition at 1 µM of 41%.
With CSCC[C@H](NC(=O)c1ccc(S(=O)(=O)NCCN2CCCCC2)cc1-c1ccccc1C)C(=O)O [Example 774, lithium salt] the inhibition at 1 µM was 48%.
Work on CSCC[C@H](NC(=O)c1ccc(S(=O)(=O)NCCN2CCOCC2)cc1-c1ccccc1C)C(=O)O [Example 775, lithium salt] yielded an inhibition at 1 µM of 32%.
With COc1ccc(CCNS(=O)(=O)c2ccc(C(=O)N[C@@H](CCSC)C(=O)O)c(-c3ccccc3C)c2)cc1OC [Example 776] the inhibition at 1 µM was 36%.
CSCC[C@H](NC(=O)c1ccc(S(=O)(=O)NCCCn2ccnc2)cc1-c1ccccc1C)C(=O)O [Example 777, lithium salt] was tested, and the inhibition at 1 µM was 83%.
In the case of COc1cccc(CN(Cc2ccc(C(=O)N[C@@H](CCSC)C(=O)O)c(-c3ccccc3C)c2)c2ccccc2)c1 [Example 779], the “% inhibition … at 1 × 10^-8 M” value is reported as 70%.
In the case of CSCC[C@H](NC(=O)c1ccc(CN(c2ccccc2)S(=O)(=O)c2ccc(C(F)(F)F)cc2)cc1-c1ccccc1C)C(=O)O [Example 780], the “% inhibition … at 1 × 10^-8 M” value is reported as 71%.
